Experiment [1] deals with T1, western clawed frog TRPV3 (Xenopus tropicalis, UniProt A0A7D9NMJ5).
T1 construct: full-length native channel, 773 residues, cDNA cloned from toe RNA into pGEMHE; cRNA injected into Xenopus laevis oocytes; homotetramer (known biology)
T1 sequence (A0A7D9NMJ5 1-773): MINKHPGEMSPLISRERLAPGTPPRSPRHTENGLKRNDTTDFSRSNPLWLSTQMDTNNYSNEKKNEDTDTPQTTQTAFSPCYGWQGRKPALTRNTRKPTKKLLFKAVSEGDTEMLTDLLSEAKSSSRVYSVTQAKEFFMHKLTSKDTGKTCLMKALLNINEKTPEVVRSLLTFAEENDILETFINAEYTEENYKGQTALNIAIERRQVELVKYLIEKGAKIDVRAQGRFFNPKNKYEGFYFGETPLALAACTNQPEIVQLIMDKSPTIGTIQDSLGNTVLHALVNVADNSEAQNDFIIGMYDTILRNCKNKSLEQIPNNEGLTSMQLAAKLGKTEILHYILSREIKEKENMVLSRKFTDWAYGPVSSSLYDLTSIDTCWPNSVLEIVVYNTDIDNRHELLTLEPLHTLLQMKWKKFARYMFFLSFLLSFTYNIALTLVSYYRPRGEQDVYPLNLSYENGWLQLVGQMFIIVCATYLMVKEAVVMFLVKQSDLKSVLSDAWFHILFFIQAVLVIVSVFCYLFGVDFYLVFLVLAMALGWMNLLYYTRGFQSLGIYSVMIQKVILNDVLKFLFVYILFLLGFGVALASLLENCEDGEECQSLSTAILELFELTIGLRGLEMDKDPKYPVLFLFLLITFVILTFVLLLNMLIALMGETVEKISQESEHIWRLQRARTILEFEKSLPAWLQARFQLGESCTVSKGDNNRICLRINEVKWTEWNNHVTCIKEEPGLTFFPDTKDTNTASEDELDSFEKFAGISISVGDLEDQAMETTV
The experiment is described as follows: two-electrode voltage clamp in Xenopus laevis oocytes, dose-response. The format is cell-based.

The target in a further experiment is T2, mouse TRPV3 (Mus musculus, UniProt Q8K424).
T2 construct: full-length channel from pcDNA3 subcloned into pOX+; cRNA injected into Xenopus laevis oocytes; homotetramer (known biology)
T2 sequence (Q8K424 1-791): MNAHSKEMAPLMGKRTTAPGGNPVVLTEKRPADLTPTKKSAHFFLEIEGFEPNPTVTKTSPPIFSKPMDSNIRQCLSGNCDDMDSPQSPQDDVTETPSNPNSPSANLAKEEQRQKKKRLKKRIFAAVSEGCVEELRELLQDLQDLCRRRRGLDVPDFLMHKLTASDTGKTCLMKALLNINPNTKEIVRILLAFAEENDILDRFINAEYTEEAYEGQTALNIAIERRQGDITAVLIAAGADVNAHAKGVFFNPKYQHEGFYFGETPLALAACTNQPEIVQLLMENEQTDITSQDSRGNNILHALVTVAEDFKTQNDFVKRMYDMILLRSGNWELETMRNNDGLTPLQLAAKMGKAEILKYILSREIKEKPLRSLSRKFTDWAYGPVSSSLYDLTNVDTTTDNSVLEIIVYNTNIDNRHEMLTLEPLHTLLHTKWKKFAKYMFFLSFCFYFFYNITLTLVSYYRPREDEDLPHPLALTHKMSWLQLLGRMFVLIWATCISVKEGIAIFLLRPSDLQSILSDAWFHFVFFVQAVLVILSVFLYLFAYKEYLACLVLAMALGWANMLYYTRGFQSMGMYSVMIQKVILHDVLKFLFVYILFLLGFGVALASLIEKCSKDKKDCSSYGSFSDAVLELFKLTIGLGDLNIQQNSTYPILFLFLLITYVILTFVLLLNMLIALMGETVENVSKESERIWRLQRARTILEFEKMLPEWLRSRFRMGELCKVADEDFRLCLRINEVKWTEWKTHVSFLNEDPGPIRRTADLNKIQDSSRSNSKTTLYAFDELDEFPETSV
The experiment is described as follows: two-electrode voltage clamp in Xenopus laevis oocytes. The class given is cell-based. Conditions: agonist. For orientation: Two-electrode voltage clamp is typically applied to oocytes expressing channels or transporters.

On to `NCCOB(c1ccccc1)c1ccccc1` [2-APB], for which the EC50 in experiment [1] amounted to 540 ± 240 µM.
As for `CC12CCC(CC1=O)C2(C)C` (stereo not drawn) [camphor], the activation result on mouse TRPV3 (8 mM camphor) was “well known activators of mammalian TRPV3 (Figure 5F and 5G, Right)”.
For `CC12CCC(CC1)C(C)(C)O2` [eucalyptol], on mouse TRPV3 (10 mM eucalyptol), the activation entry is “well known activators of mammalian TRPV3 (Figure 5F and 5G, Right)”.

By EC50 is commonly meant the concentration needed to bring the measured effect to its halfway point.

Values taken from article PMC3072374, “Evolution of Vertebrate Transient Receptor Potential Vanilloid 3 Channels: Opposite Temperature Sensitivity between Mammals and Western Clawed Frogs” (PLoS Genetics, 2011).
